In patent publication US20260265360A1, “USE OF ANTI-FAM19A5 ANTAGONISTS FOR TREATING HEARING DISORDERS” (NEURACLE SCIENCE CO., LTD., priority 2023, published 2026):

What was measured:
[1] = system: inner hair cells of mouse cochlear explant; experiment: Reversal of FAM19A5-induced inhibition of synaptogenesis (CtBP2 puncta); assay type: cell-based; details: FAM19A5 protein 1 μM alone, treated 1 DIV, stained 2 DIV
Procedure: Cochlear explant were cultured in medium consisting of plating media, which consist of Neurobasal media (Invitrogen), 1% N2 supplement, and 10 μg/mL Ampicillin with culture media with additional 1% FBS.
Postnatal day 4-5 (P4-5) C57BL/6 mice were sacrificed for inner ear dissection. Mouse head was bisected, and brain tissue was removed. Cochlea was carefully separated the from the extraneous bones in ice-cold HBSS (5 mM HEPES/1.3 mM CaCl2), 0.9 mM MgCl2, pH 7.4) or External solution (1.2 mM CaCl2), 1 mM MgCl2, 5 mM HEPES in HBSS). Then the stria vascularis and spiral bone plate was removed, and cochlea was cut into two to three sections. […]
Mouse cochlear explant cultures were treated with FAM19A5, FAM19A5 combined with a FAM19A5 antagonist (e.g., described herein, e.g., 1-30 antibody), or a FAM19A5 antagonist (e.g., described herein, e.g., 1-30 antibody) alone at 1 DIV to determine the level of synaptogenesis at 2 DIV by immunostaining CtBP2, a ribbon synapse marker. To quantify the number of CtBP2 puncta of individual inner hair cells, z-stack confocal images were exported in “multi-page” and the number of CtBP2 puncta from each individual inner hair cells were measured using ROI manger and multi-point tool from Fiji (Image J). Number of CtBP2 puncta from five individual inner hair cells were counted per image and 3 z-stack images were measured from each treatment group. […]

[2] = system: mouse primary spiral ganglion neurons; experiment: Reversal of FAM19A5-induced inhibition of neurite outgrowth; assay type: cell-based; details: FAM19A5 protein 10 μM alone, treated 0 DIV, NF200 staining at 3 DIV
Procedure: Sprial ganglion neuron were cultured in culture media consisting of high-glucose (4.5 mg/mL) DMEM, 0.1 mg/ml penicillin, 0.1 mg/mL streptomycin, N2 supplement, and 10 µg/mL insulin and was designated here as “5K” because in this media, [K+]=5.4 mM. A depolarizing media, designated as “30K,” in which Na was replaced with equimolar K to raise [K] to 30 mM while maintaining osmolarity was also used.
Dissociated spiral ganglion cell cultures were prepared from postnatal day 4-5 (P4-5) cochleae and maintained using a procedure modified from the methods described by Bok et al., J Neurosci 23 (3): 777-87 (2003), which is incorporated herein by reference in its entirety. […]
Neurite outgrowth was quantified by measuring the total length of neurites per neuron. Neurons were stained with NF200 at either 2 or 3 DIV, and neurite lengths were measured using the Fiji (Image J). Individual neurons were manually selected, and neurite lengths were determined using the Simple Neurite Tracer plugin.
Briefly, mouse primary spiral ganglion neurons (cultured and processed as described in Example 11) were treated with a FAM19A5 protein (10 μM) alone or in combination with an anti-FAM19A5 antibody (1-30) (100 nM) at 0 DIV (day in vitro). […] Then, at 3 DIV, the neurons were stained for neurofilament protein (NF200) expression and the average neurite length quantified.

Substance: FAM19A5 protein: FAM19A5 protein added to neuron and cochlear explant cultures to inhibit neurite outgrowth and synaptogenesis
- number of CtBP2 puncta in inner hair cells vs control group [1]: significantly decreased
- total neurite length vs non-treated cells [2]: significantly reduced
